Test results reported in PMC10729961, “Putative purine nucleoside interacting residues in the malaria parasite purine uptake transporter PfENT1 are critical for transporter function” (PLOS ONE, 2023).
Entries after “also recorded” stand apart in the source; their conditions may differ.

Legend:
[1] = tested on: yeast expressing R291C PfENT1; experiment: 5-Fluorouridine (5-FUrd) toxicity assay; type: cell-based; conditions: 500 μM adenine plus 125 μM 5-FUrd, OD600 at 24 h
Experimental: (§1) 5-FUrd toxicity was measured in a subset of the PfENT1 mutants. Mutants were grown overnight in SDM with 1 mM adenine. Meanwhile, purine auxotrophic yeast were grown in YPD overnight. Yeast strains were spun down and resuspended in sterile water then added to the honeycomb plates with SDM media with NP40 (final concentration of 0.1%) containing either no adenine, 500 μM adenine, or 500 μM adenine plus 125 μM 5-FUrd (Fisher Scientific Cat. #AAJ6208303) with an initial OD600 = 0.05 and a final volume of 150 μL. Typically, 10 μL of yeast (final concentration of resuspended yeast OD600 = around 0.8) were added to 140 μL of media. Each trial contained triplicates. The 100-well honeycomb plate was placed in the Bioscreen C for 24-h under continuous high shaking at 30°C. The endpoint OD600 was measured at 24 h. Each experiment was repeated at least three times on separate days.

[2] = tested on: yeast expressing F286C PfENT1; experiment: 5-Fluorouridine (5-FUrd) toxicity assay; type: cell-based; conditions: 500 μM adenine plus 125 μM 5-FUrd, OD600 at 24 h
Experimental: as §1

[3] = tested on: yeast expressing L50C PfENT1; experiment: 5-Fluorouridine (5-FUrd) toxicity assay; type: cell-based; conditions: 500 μM adenine plus 125 μM 5-FUrd, OD600 at 24 h
Experimental: as §1

[4] = tested on: yeast expressing W53C PfENT1; experiment: 5-Fluorouridine (5-FUrd) toxicity assay; type: cell-based; conditions: 500 μM adenine plus 125 μM 5-FUrd, OD600 at 24 h
Experimental: as §1

[5] = tested on: yeast expressing Q135C PfENT1; experiment: 5-Fluorouridine (5-FUrd) toxicity assay; type: cell-based; conditions: 500 μM adenine plus 125 μM 5-FUrd, OD600 at 24 h
Experimental: as §1

[6] = tested on: yeast expressing S290C PfENT1; experiment: 5-Fluorouridine (5-FUrd) toxicity assay; type: cell-based; conditions: 500 μM adenine plus 125 μM 5-FUrd, OD600 at 24 h
Experimental: as §1

[7] = tested on: yeast expressing WT PfENT1; experiment: 5-Fluorouridine (5-FUrd) toxicity assay; type: cell-based; conditions: 500 μM adenine plus 125 μM 5-FUrd, OD600 at 24 h
Experimental: as §1

[8] = tested on: yeast expressing D287C PfENT1; experiment: 5-Fluorouridine (5-FUrd) toxicity assay; type: cell-based; conditions: 500 μM adenine plus 125 μM 5-FUrd, OD600 at 24 h
Experimental: as §1

[9] = tested on: yeast expressing N51C PfENT1; experiment: 5-Fluorouridine (5-FUrd) toxicity assay; type: cell-based; conditions: 500 μM adenine plus 125 μM 5-FUrd, OD600 at 24 h
Experimental: as §1

[10] = tested on: purine auxotrophic yeast (ade2Δ, fui1Δ); experiment: 5-Fluorouridine (5-FUrd) toxicity assay; type: cell-based; conditions: ade2Δ strain; 500 μM adenine plus 125 μM 5-FUrd; OD600 at 24 h
Experimental: as §1

[11] = tested on: PfENT1 R291A; conditions: yeast expressing R291A, Y190A background; cited from earlier work
[12] = tested on: PfENT1 D287A; conditions: yeast expressing D287A, Y190A background; cited from earlier work
[13] = tested on: PfENT1 W53A; conditions: yeast expressing W53A, Y190A background; cited from earlier work
[14] = tested on: PfENT1 D287A; conditions: cited from earlier work
[15] = tested on: PfENT1 R291A; conditions: cited from earlier work
[16] = tested on: PfENT1 Q135A; conditions: cited from earlier work
[17] = tested on: PfENT1 Q135A; conditions: yeast expressing Q135A, Y190A background; cited from earlier work
[18] = tested on: PfENT1 W53A; conditions: cited from earlier work
[19] = tested on: PfENT1 S49A; conditions: cited from earlier work

SMILES	5-FUrd assay [1]	5-FUrd assay [2]	5-FUrd assay [3]	5-FUrd assay [4]	5-FUrd assay [5]	5-FUrd assay [6]	5-FUrd assay [7]	5-FUrd assay [8]	5-FUrd assay [9]	5-FUrd assay [10]	uptake of radioactive inosine [11]	uptake of radioactive inosine [12]	uptake of radioactive inosine [13]	inosine binding by ITC [14]	inosine binding by ITC [15]	inosine binding by ITC [16]	uptake of radioactive inosine [17]	inosine binding by ITC [18]	inosine binding by ITC [19]
O=c1[nH]c(=O)n([C@@H]2O[C@H](CO)[C@@H](O)[C@H]2O)cc1F [5-FUrd, 5-Fluorouridine]	did grow; also recorded: growth-non-functional*	did not grow; also recorded: killed-functional	did not grow; also recorded: killed-functional	did grow; also recorded: growth-non-functional*	did grow; also recorded: growth-non-functional*	did grow; also recorded: growth-non-functional*	did not grow; also recorded: killed-functional	did grow; also recorded: growth-non-functional*	did not grow; also recorded: killed-functional	growth-non-functional									
O=c1[nH]cnc2c1ncn2[C@@H]1O[C@H](CO)[C@@H](O)[C@H]1O [inosine]											did not show uptake	did not show uptake	did not show uptake	did not bind	bound with lower affinity	did not bind	did not show uptake	bound with lower affinity	did not bind
